The values below come from patent publication US7462613B2, “Pyridazinone derivatives as pharmaceuticals and pharmaceutical compositions containing them” (SANOFI-AVENTIS Deutschland GmbH, priority 2002, dated 2008).

For this assay, the target named is CDK2/Cyclin E kinase (Homo sapiens, UniProt P24941). Description: CDK2/Cyclin E Flashplate Assay: 96-Well Format. The assay is classed as biochemical. To be noted: streptavidin-coated flashplate; biotinylated-Rb peptide substrate 10 μM; 33P-ATP/ATP 1 μM; CDK2/Cyclin E 20 nM; 30 minutes at 30° C.; 1% DMSO. Here is the method:
Functional Measurements for Determination of IC50-Values
CDK2/Cyclin E Flashplate Assay: 96-Well Format
A 96-well streptavidin-coated flashplate was used to assay potency of compounds according formula (I) against CDK2/Cyclin E kinase. To carry out the assay, biotinylated-Rb peptide substrate (Biotin-[…]-OH) was solubilized at 1 mM in kinase buffer (Hepes 50 mM, NaCl 1 mM, MgCl2 5 mM pH 7.5) as a stock solution conserved at −20° C. in aliquots of 110 μl. The day of the experiment, an aliquot of this solution was thawed and diluted to 14.3 μM in kinase buffer, containing 1 mM dithiothreitol (DTT) added in the buffer at the same time.
70 μl of this solution was added in each well of the flashplate in order to achieve a final concentration of 10 μM (100 μl reactionnal volume). Serial dilutions of inhibitors were prepared in DMSO from 10 mM stock solutions in order to achieve 1000 μM, 333.3 μM, 111.1 μM, 37.03 μM, 12.35 μM, 4.11 μM and 1.37 μM and all were rediluted in kinase buffer+DTT in order to achieve 100 μM, 33.3 μM, 11.1 μM, 3.7 μM, 1.24 μM, 0.41 μM and 0.14 μM in DMSO 10% buffer (vol/vol). 10 μl of each, of these solutions (or 10 μl of buffer+DTT for controls) were transferred to the testplate wells in order to achieve 10 μM, 3.33 μM, 1.11 μM, 0.37 μM, 0.12 μM, 0.04. μM and 0.01 μM as final concentrations, 1% DMSO (vol/vol). In each well, 10 μl of a solution of a mix of ^33PyATP/ATP were added in order to achieve 1 μM final concentration and a total of 1 μCi. The kinase reaction was initiated by addition of 10 μl of a solution at 200 nM of CDK2/Cyclin E in kinase buffer+DTT (or buffer+DTT for blanks) in order to achieve 20 nM final concentration. After addition of each reagent, the test-plate was shakened. The plates were incubated 30 minutes at 30° C. with a shaking at 650 rpm. At the end of the incubation, the plates were washed 3 times with 300 μl of PBS (without calcium and magnesium) per well. The incorporation of ^33P to the peptide was measured by scintillation counting.
In turn, `O=C(NCc1ccc(Cl)cc1)c1cc(-c2ccnc(NCCN3CCOCC3)n2)n[nH]c1=O` [Example 175, 6-[2-(2-Morpholin-4-yl-ethylamino)-pyrimidin-4-yl]-3-oxo-2,3-dihydro-pyridazine-4-carboxylicacid 4-chloro-benzylamide; compoundwith trifluoro-acetic acid] showed an IC50 of 0.027 µM.

`O=C(NCc1ccc(Cl)cc1)c1cc(-c2ccc(O)c(Cl)c2)n[nH]c1=O` [Example 180, 6-(3-Chloro-4-hydroxy-phenyl)-3-oxo-2,3-dihydro-pyridazine-4-carboxylic acid 4-chloro-benzylamide] gave a 50% inhibitory concentration (IC50) of 0.173 µM. Compound `O=C(NCc1ccc(Cl)cc1)c1cc(-c2cc(F)c(O)c(F)c2)n[nH]c1=O` [Example 182, 6-(3,5-Difluoro-4-hydroxy-phenyl)-3-oxo-2,3-dihydro-pyridazine-4-carboxylic acid 4-chloro-benzylamide] returned a half-inhibitory concentration (IC50) of 0.464 µM. With `O=C(NCc1ccc(Cl)cc1)c1cc(-c2ccc(O)c(F)c2)n[nH]c1=O` [Example 183, 6-(3-Fluoro-4-hydroxy-phenyl)-3-oxo-2,3-dihydro-pyridazine-4-carboxylic acid 4-chloro-benzylamide], half-maximal inhibition (IC50) was put at 0.102 µM. Next, `CCNc1nccc(-c2cc(C(=O)NCc3ccc(Cl)cc3)c(=O)[nH]n2)n1` [Example 190, 6-(2-Ethylamino-pyrimidin-4-yl)-3-oxo-2,3-dihydro-pyridazine-4-carboxylic acid 4-chloro-benzylamide]: 0.018 µM; `CNc1cc(-c2cc(C(=O)NCc3ccc(Cl)cc3)c(=O)[nH]n2)ccn1` [Example 206, 6-(2-Methylamino-pyridin-4-yl)-3-oxo-2,3-dihydro-pyridazine-4-carboxylicacid 4-chloro-benzylamide]: 0.157 µM; `COC(=O)c1ccc(CNC(=O)c2cc(-c3ccncc3)n[nH]c2=O)cc1` [Example 217, 4-{[(3-Oxo-6-pyridin-4-yl-2,3-dihydro-pyridazine-4-carbonyl)-amino]-methyl}-benzoic acid methylester; compound withtrifluoro-acetic acid]: 0.024 µM.

As to `CCCCNc1nccc(-c2cc(C(=O)NCCCN3CCN(C)CC3)c(=O)[nH]n2)n1` [Example 218, 6-(2-Butylamino-pyrimidin-4-yl)-3-oxo-2,3-dihydro-pyridazine-4-carboxylic acid [3-(4-methyl-piperazin-1-yl)-propyl]-amide; compoundwith trifluoro-acetic acid], the half-inhibitory concentration (IC50) stood at 0.107 µM. For `CCCCNc1nccc(-c2cc(C(=O)NCc3cccnc3)c(=O)[nH]n2)n1` [Example 219, 6-(2-Butylamino-pyrimidin-4-yl)-3-oxo-2,3-dihydro-pyridazine-4-carboxylic acid (pyridin-3-ylmethyl)-amide], it took 0.015 µM to reach half-maximal inhibition (IC50). `CCCCNc1nccc(-c2cc(C(=O)NCCCc3cccnc3)c(=O)[nH]n2)n1` [Example 220, 6-(2-Butylamino-pyrimidin-4-yl)-3-oxo-2,3-dihydro-pyridazine-4-carboxylic acid (3-pyridin-3-yl-propyl)-amide]: the IC50 was 0.012 µM. The value for `COc1cc(-c2cc(C(=O)NCc3ccc(C(=O)O)cc3)c(=O)[nH]n2)ccc1O` [Example 225, 4-({[6-(4-Hydroxy-3-methoxy-phenyl)-3-oxo-2,3-dihydro-pyridazine-4-carbonyl]-amino}-methyl)-benzoic acid] was 0.149 µM.
